The values that follow come from publication PMC5955599, “The HTLV-1 gp21 fusion peptide inhibits antigen specific T-cell activation in-vitro and in mice” (PLoS Pathogens, 2018).

The test system of the test is MOG35-55–antigen specific T-cells. Kind of test: mRNA expression in activated T-cells (qRT-PCR). It is filed as cell-based, mouse (C57Bl/6J). The following applies: 10μM; APC activation; RNA 24 hours following activation; normalized to Rpl13a; n≥3. How it is done:
Fig 2 Modulation of Th1/Th2 gene expression and cytokine secretion from activated T-cells by the HTLV FP. MOG35-55–antigen specific T-cells were activated by irradiated MOG35-55 presenting APCs, in the presence of the HTLV FP at 10μM. (A) Total RNA was isolated 24 hours following activation and mRNA expression levels were determined by qRT-PCR. The values of each gene were normalized to Rpl13a as a housekeeping control. The HTLV FP reduces mRNA expression of Th1 specific genes (IFNG, LTA, and STAT4) and elevates mRNA expression of Th2 specific genes (IL4 and IL10). The data is presented as arbitrary units. n≥3. (B) Media was collected 24 hours following activation and secretion of cytokines was measured by ELISA assay. IFN-γ secretion is inhibited, IL4 secretion is elevated and TNFα is not affected by the HTLV FP. n = 12. One-way ANOVA was used for statistical analysis. *P<0.05; **P<0.01;***P<0.001.
(A-B) MOG35-55–antigen specific T-cells were activated by irradiated MOG35-55 presenting APCs, in the presence of the HTLV FP at 10μM. Total RNA was isolated 24 hours following activation and mRNA expression levels were determined by qRT-PCR. The values of each gene were normalized to Rpl13a as a housekeeping control. The HTLV FP reduces TBX21 (T-bet) mRNA expression and elevates GATA3 mRNA expression. The data is presented as arbitrary units. n≥3. (C-H) MOG35-55–antigen specific T-cells were activated by irradiated MOG35-55 presenting APCs, in the presence of either HTLV or HIV FP at 10μM. Samples were fixed in 4% PFA and stained with anti T-bet-APC and anti Gata3-FITC antibodies (C-D) 24, (E-F) 48 and (G-H) 72 hours following activation. Each time point is represented as cell count vs. APC or FITC fluorescence histogram. Analysis was performed using LSR-II flow cytometer (BD) and FlowJo cell analysis software (FlowJo, LLC). The HTLV FP reduces T-bet expression and elevates Gata3 expression. n = 3. One-way ANOVA was used for statistical analysis. ns, not significant; *P<0.05;** P<0.01.
Antigen-specific T-cells were plated onto round 12-well plates (10^6 cells/ well) and activated with 5x10^5 irradiated (25 gray) APC and 5μg/ml of MOG p35-55 in the presence or absence of relevant peptides. Total RNA from cells was isolated 24 hours following activation using the NucleoSpin RNA II kit (Macherey-Nagel, Duren, Germany). 2μg aliquot of the total RNA was reverse transcribed into cDNA using Bio-RT (Bio-Lab, Jerusalem, Israel), dNTPs and random hexamer primers. qRT-PCR was performed on Step One Plus, ABI instrument (Applied Biosystems, Grand Island, NY, USA) using SYBR Green PCR Master Mix (Quanta BioSciences, Gaithersburg, MD, USA). The values for the specific genes were normalized to Rpl13a (mouse) as housekeeping controls and the data are described in arbitrary units. PCR reactions were performed in duplicate. The specific primers used for qRT-PCR are available on request.
(Quantitative PCR measures a nucleic acid by following its amplification.)

As for “AVPVAVWLVSALAMGAGVAGGITGSMSLASGKS [HTLV FP, gp21 fusion peptide of HTLV-1, MT-2 isolate]”, the “GATA3 mRNA expression” value is “elevated Gata3 expression”, the “IFNG mRNA level” value is given as “reduced the mRNA levels”, the “IL4 mRNA level” value was “elevated the mRNA levels” and the “IL10 mRNA level” value is “elevated the mRNA levels”. Moreover, the “LTA mRNA level” value is on record as “reduced the mRNA levels”, the “STAT4 mRNA level” value was “reduced the mRNA levels” and the “TBX21 (T-bet) mRNA expression” value is “reduced TBX21 (T-bet) expression”.
